Experimental data from paper PMC8303963, “Action of Multiple Rice β-Glucosidases on Abscisic Acid Glucose Ester” (International Journal of Molecular Sciences, 2021).

Biological target: T1, Os9BGlu31 (Oryza sativa, UniProt B7F7K7)
T1 construct: gene BGLU31; recombinant from E. coli, IMAC purified
T1 sequence (B7F7K7 23-523): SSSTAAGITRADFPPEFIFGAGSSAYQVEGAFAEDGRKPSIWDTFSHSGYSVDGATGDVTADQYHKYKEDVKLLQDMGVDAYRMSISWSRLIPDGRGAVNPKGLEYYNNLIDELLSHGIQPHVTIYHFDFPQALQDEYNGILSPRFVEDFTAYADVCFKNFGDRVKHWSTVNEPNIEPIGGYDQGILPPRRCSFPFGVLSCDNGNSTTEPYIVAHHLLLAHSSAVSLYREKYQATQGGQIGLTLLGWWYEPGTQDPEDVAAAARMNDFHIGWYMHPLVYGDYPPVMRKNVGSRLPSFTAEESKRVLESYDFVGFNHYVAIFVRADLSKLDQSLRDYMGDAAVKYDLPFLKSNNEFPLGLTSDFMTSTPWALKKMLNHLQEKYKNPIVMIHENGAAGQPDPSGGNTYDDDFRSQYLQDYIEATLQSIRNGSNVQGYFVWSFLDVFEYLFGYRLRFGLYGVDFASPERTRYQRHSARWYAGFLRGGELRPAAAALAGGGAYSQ
Experiment: preparative transglucosylation, product by NMR and UHPLC
Assay type: biochemical
Conditions: glucose acceptor; 10 mM ABA, 10 mM pNPGlc as donor, citrate buffer pH 4.5, 37 °C overnight

Structure (SMILES): CC1=CC(=O)CC(C)(C)[C@@]1(O)/C=C/C(C)=C\C(=O)O [ABA]
- preparative transglucosylation, product by NMR and UHPLC: used to transfer glucose from pNPGlc to ABA to generate ABA-GE
